Assay results as given in patent US20160022675A1, “PROCESSES FOR PREPARING TETRAHYDROISOQUINOLINES” (BRISTOL-MYERS SQUIBB COMPANY, priority 2013, published 2016).
Read-outs that look alike come from different tables or passages of the source.

What was measured:
SERT = SERT (Homo sapiens, UniProt P31645); assay: Competition binding, membranes from HEK cells overexpressing SERT; design: expressed in transfected cells; host or cells: HEK cells (membranes)
Procedure: (§1) Competition binding experiments were performed to determine the in vitro binding potencies (IC50 values) of Compound 1-(4S) for SERT, DAT, and NET. Membranes prepared from human embryonic kidney (HEK) cells overexpressing each transporter were employed. Radioligands were used at their respective affinity constant (Kd) concentrations for each transporter to enable direct comparisons of the IC50 values between assays.

locomotor activity = assay: Locomotor activity, mouse; type: in vivo
Text: (§2) To better understand the margin between doses of Compound 1-(4S) that are effective in the mouse tail suspension models and those that lead to monoamine-related side effects, locomotor activity was examined to assess psychostimulant properties and stereotypy was examined to assess more severe DA-related side effects. Increased body temperature, another effect that has been attributed to DA pharmacology, was also studied. In the mouse, Compound 1-(4S) increased locomotor activity and stereotypy scores at doses of 3.0 mg/kg and 10 mg/kg, respectively. Thus, the margin between the Compound 1-(4S) effective dose in the mouse tail suspension and increased locomotor activity was 10-fold and the margin versus activity in stereotypy was 30-fold. The thermogenic effect of Compound 1-(4S) was studied in mice and rats by measuring changes in rectal temperature following administration of the compound. […] The onset of the thermogenesis was earlier as the dose was increased. The levels of SERT and NET occupancy were over 80% and appeared saturated across the doses tested. The DAT occupancy was dose-dependent, with 55±5.7% at 1.0 mg/kg, 74±6% at 3.0 mg/kg, and 83±0.8% at 10 mg/kg. […] The onset of the temperature increase was earlier at the highest dose of 10 mg/kg. […] The DAT occupancy was 37±8.3%, 55±5.2%, and 71±1.7% at 1.0, 3.0, and 10 mg/kg, respectively. […]

cocaine-lever responding = conditions: rat, in vivo; for cocaine-lever responding: po
Procedure: Compound 1-(4S) was evaluated in a cocaine discrimination assay in rats, a model used to address abuse potential. The cocaine discrimination assay is known the art Compound 1-(4S) was administered and the percentage of rats that responded by selecting the cocaine-associated lever was measured. […] Since the subjective effects of cocaine are evident 15 minutes after dosing, Compound 1-(4S) was tested at the earlier time point. […] In addition, the onset of this partial effect was slower than the onset of the subjective effects of cocaine in this model.

NET = NET (Homo sapiens, UniProt P23975); assay: [3H]NE uptake into HEK293/hNET cells; type: cell-based; design: expressed in transfected cells; host or cells: HEK293; conditions: read-out: Norepinephrine reuptake IC50 ([3H]NE uptake)
NET, sequence (P23975 whole entry): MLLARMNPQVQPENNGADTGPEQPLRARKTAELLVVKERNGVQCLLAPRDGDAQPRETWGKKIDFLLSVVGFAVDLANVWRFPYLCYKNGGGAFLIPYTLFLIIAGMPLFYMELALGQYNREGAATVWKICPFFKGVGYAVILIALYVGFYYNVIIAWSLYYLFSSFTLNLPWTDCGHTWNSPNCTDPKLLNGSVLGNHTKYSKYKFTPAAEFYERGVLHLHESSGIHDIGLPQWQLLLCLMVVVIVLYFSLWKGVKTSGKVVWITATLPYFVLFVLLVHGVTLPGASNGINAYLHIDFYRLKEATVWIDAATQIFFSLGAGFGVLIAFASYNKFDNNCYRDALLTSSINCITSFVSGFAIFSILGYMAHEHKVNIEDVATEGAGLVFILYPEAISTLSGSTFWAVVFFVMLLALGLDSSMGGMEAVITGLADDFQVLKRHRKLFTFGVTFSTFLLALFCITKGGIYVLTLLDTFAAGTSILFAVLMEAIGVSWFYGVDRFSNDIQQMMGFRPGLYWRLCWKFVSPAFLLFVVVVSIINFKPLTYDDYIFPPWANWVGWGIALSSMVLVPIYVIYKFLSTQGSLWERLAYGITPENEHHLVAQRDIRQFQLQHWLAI
Text: Cell-based assays were used to determine the ability of Compound 1-(4S) to inhibit reuptake of 3H-labeled DA ([3H]DA), NE ([3H]NE), and 5-HT ([3H]5-HT).

DAT [1] = molecular target: DAT (Canis lupus familiaris, UniProt B6EUL3); assay: DAT occupancy, dog; type: in vivo; conditions: single binding site model, read-out: total plasma concentration producing 50% effect (EC50), DAT occupancy
DAT (Canis lupus familiaris, UniProt B6EUL3), sequence (B6EUL3 1-617): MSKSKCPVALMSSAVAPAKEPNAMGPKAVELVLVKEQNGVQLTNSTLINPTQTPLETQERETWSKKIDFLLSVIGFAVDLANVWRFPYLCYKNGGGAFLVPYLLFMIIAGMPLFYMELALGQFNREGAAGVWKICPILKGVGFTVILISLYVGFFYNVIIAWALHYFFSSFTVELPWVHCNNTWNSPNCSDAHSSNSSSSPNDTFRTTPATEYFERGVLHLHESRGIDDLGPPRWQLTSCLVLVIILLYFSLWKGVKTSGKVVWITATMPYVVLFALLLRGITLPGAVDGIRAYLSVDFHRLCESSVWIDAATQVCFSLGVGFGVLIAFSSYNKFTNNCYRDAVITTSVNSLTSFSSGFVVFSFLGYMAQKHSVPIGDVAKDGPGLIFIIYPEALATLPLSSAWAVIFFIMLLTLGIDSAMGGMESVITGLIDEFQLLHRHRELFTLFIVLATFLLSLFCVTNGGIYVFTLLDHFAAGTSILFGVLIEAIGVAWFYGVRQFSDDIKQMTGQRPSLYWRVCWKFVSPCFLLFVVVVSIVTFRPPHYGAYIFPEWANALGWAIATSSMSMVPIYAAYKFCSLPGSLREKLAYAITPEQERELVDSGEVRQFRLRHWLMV
Procedure: The effects of Compound 1-(4S) in the mouse tail suspension model of depression and target site occupancy were assessed to compare occupancies associated with the behavioral response. The mouse tail suspension model is known the art. […] The lowest effective dose of Compound 1-(4S), 0.3 mg/kg, PO, decreased immobility by 77% relative to vehicle-treated controls. […] Administration of Compound 1-(4S) led to dose-dependent occupancy of SERT, NET, and DAT binding sites in the brain. At the lowest behaviorally-effective dose (0.3 mg/kg), occupancies were 86±1% of SERT, 76±3% of NET, and 28±3% of DAT. At 1 mg/kg, occupancies were 89±1%, 82±1% and 54±3% at SERT, NET, and DAT, respectively. Pharmacokinetics and pharmacodynamics (PD) in mouse, rat, and dog focused primarily on DAT occupancy since SERT and NET occupancies were saturated by drug for most, if not all, of the times studied. DAT occupancy increased as a function of increasing plasma exposure. The DAT occupancy to total plasma level could be fitted using a single binding site model and plasma level ED50 (the dose producing 50% effect) values could be calculated.

DAT [2] = molecular target: DAT (Homo sapiens, UniProt Q01959); assay: Competition binding, membranes from HEK cells overexpressing DAT; design: expressed in transfected cells; host or cells: HEK cells (membranes); conditions: radioligand at Kd concentration; HEK cell membranes
DAT (Homo sapiens, UniProt Q01959), sequence (Q01959 whole entry): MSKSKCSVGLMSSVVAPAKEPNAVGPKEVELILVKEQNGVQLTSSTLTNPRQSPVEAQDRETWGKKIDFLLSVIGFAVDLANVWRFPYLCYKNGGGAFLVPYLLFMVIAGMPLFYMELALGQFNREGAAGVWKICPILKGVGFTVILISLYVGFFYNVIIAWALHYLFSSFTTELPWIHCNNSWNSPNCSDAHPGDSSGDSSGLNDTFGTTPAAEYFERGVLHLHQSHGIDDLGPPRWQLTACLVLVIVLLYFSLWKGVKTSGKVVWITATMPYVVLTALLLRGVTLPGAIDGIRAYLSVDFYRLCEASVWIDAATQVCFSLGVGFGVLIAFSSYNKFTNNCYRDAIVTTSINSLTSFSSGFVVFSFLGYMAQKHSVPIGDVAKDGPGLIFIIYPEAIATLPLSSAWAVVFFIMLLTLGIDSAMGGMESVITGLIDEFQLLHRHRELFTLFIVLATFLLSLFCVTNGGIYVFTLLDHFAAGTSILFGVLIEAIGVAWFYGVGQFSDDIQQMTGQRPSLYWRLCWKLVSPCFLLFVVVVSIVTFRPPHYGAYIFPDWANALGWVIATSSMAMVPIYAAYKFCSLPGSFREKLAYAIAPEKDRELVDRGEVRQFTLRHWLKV
Procedure: as §1

Stability = type: physicochemical; conditions: with protection from light
rectal temperature [3] = assay: Thermogenic effect (rectal temperature), mouse; type: in vivo; conditions: 4 hours after doses of 1, 3, and 10 mg/kg
Text: as §2

rectal temperature [4] = assay: Thermogenic effect (rectal temperature), rat; type: in vivo
Text: To better understand the margin between doses of Compound 1-(4S) that are effective in the mouse tail suspension models and those that lead to monoamine-related side effects, locomotor activity was examined to assess psychostimulant properties and stereotypy was examined to assess more severe DA-related side effects. Increased body temperature, another effect that has been attributed to DA pharmacology, was also studied. In the mouse, Compound 1-(4S) increased locomotor activity and stereotypy scores at doses of 3.0 mg/kg and 10 mg/kg, respectively. Thus, the margin between the Compound 1-(4S) effective dose in the mouse tail suspension and increased locomotor activity was 10-fold and the margin versus activity in stereotypy was 30-fold. The thermogenic effect of Compound 1-(4S) was studied in mice and rats by measuring changes in rectal temperature following administration of the compound. […] The onset of the thermogenesis was earlier as the dose was increased. The levels of SERT and NET occupancy were over 80% and appeared saturated across the doses tested. The DAT occupancy was dose-dependent, with 55±5.7% at 1.0 mg/kg, 74±6% at 3.0 mg/kg, and 83±0.8% at 10 mg/kg. […] The onset of the temperature increase was earlier at the highest dose of 10 mg/kg. […] The DAT occupancy was 37±8.3%, 55±5.2%, and 71±1.7% at 1.0, 3.0, and 10 mg/kg, respectively. Consistent with data obtained with mice, the thermogenic effect of Compound 1-(4S) is dose dependently related to DAT occupancy and at least 50% DAT occupancy is needed for this effect.

SERT, sequence (P31645 whole entry): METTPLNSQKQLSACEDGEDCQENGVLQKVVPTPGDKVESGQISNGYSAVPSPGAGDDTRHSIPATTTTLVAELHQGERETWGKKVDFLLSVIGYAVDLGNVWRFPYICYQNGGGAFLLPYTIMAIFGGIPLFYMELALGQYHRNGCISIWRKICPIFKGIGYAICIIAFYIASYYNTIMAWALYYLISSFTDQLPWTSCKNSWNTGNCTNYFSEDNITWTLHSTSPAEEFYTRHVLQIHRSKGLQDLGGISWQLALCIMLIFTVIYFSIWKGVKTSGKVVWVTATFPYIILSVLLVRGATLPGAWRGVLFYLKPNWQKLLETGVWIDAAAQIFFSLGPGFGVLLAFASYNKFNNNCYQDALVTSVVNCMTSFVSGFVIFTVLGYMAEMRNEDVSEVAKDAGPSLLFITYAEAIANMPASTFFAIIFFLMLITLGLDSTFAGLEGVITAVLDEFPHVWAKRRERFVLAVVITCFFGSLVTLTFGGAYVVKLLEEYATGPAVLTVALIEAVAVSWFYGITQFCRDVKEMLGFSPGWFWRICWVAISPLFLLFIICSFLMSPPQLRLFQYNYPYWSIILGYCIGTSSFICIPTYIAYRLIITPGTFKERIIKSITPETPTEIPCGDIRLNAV

## CN1Cc2cc(-c3ccc(N)nn3)ccc2[C@H](c2ccc3ccccc3c2)C1 [Compound 1-(4S), 6-[(4S)-1,2,3,4-tetrahydro-2-methyl-4-(2-naphthalenyl)-7-isoquinolinyl]-3-pyridazinamine]
SERT
  IC50: 0.00108 ± 9e-05 µM
Locomotor activity
  dose that increased locomotor activity: 3.0 mg/kg
  margin between effective dose in mouse tail suspension and increased locomotor activity: 10 fold
cocaine-lever responding
  substitution for the cocaine stimulus: partially substituted for the cocaine stimulus
cocaine-lever responding; 0.1 mg/kg, 60 min
  cocaine-lever responding: less than 1%
cocaine-lever responding; 0.3 mg/kg, 15 min
  cocaine-lever responding: 11%
cocaine-lever responding; 0.3 mg/kg, 60 min
  cocaine-lever responding: 53%
cocaine-lever responding; 1 mg/kg, 15 min
  cocaine-lever responding: 10%
cocaine-lever responding; 3 mg/kg, 15 min
  cocaine-lever responding: 28%
NET
  IC50: 0.0375 ± 0.0025 µM
DAT [1]
  EC50: 0.103 µM
DAT [2]
  IC50: 0.00567 ± 0.00036 µM
Stability
  Stability: Compound 1-(4S) is stable up to 25 °C with protection
Rectal temperature [3]
  change in rectal temperature: significant increases
Rectal temperature [4]; rat, 1.0 mg/kg
  significant increase in rectal temperature: not
Rectal temperature [4]; rat, doses of 3.0 and 10 mg/kg
  change in rectal temperature: Significant increases
Rectal temperature [4]; rats, consistent with mice
  DAT occupancy needed for the thermogenic effect: at least 50%
